Source: paper PMC10419174, “WR1065 conjugated to thiol-PEG polymers as novel anticancer prodrugs: broad spectrum efficacy, synergism, and drug resistance reversal” (Frontiers in Oncology, 2023)
Several values for one entry are separate records, joined by “and”; a condition that tells them apart may be missing. Equal entries are not always repeated. Where two headings read alike, the source gives them in different places. Marks after values point to notes of the source that are not given here.

Tests used:
Ovary SKOV3 cells = assay: cells; settings: for Fold increase in efficacy: drug alone ÷ drug in 4SP65-DDP combination
Procedure: (§1) The percentage of growth inhibition was calculated as follows: […]

human cancer cell lines = assay: cells
Procedure: as §1

A549 NSCLC cells = assay: cells
Procedure: as §1

Strain-1 NHMECs (M99005) = assay: NHMEC growth, trypan blue exclusion, 48-h treatment; type: cell-based, human
Text: Normal human mammary epithelial cell (NHMEC) strains used to assess potential cytotoxicity of 4SP65 and 1LP65 were established from reduction mammoplasty tissue from a healthy donor (M99005 or ‘Strain-1’) ([53]) or purchased from ATCC (Manassas, VA, USA; batch#70043304 or ‘Strain-2’) or Cell Applications (San Diego, CA, USA; lot#1669 or ‘Strain-3’). Human cancer cell lines including HCC38, MDA-MB-231, A549, National Cancer Institute (NCI)-H460, NCI-H1437, NCI-H1975, DU145, LNCaP, PC3, PANC1, SKOV3, and HL60, which were free of Mycoplasma, were purchased from ATCC. HMESO1, PPMMill, and TOV21G cells, obtained from Dr. Brian Cunniff, were verified to be Mycoplasma negative using the LookOut® Mycoplasma PCR Detection Kit (Sigma-Aldrich) and to match previously annotated DNA fingerprints by the Vermont Integrative Genomics Resource DNA Analysis Facility.
To assess the effects of 4SP65 or 1LP65 on the growth of normal epithelium, experiments were performed using NHMEC strains from differing donors ([53]). Strain-1 NHMECs were plated at 5,000 cells/well in 24-well plates and allowed to reach 50% confluence before treatment with 0-150 µM 4SP65 for 48 h. Cell viability was determined using a hemocytometer and trypan blue exclusion assay. Two other NHMEC strains, exposed to 0-150 µM 4SP65 or 0-500 µM 1LP65 for 48 h, were handled in the same fashion except that viability of cells in 96-well plates was determined using CyQUANT dye. Due to the short life span of these NHMECs, standard curves were not generated and fluorescence readings were used as a surrogate marker of cell number ([54]).

[1] = drug alone, 48 h, 4SP65/cisplatin study
[2] = drug alone, 48 h, 4SP65/cisplatin study, ND = not definable, highest concentration in parentheses
[3] = 4SP65: average across 15 cell lines, 48 h
[4] = 15 cell lines for 4SP65, 11 for 1LP65
[5] = average of A549, H460, PPMMill, LNCaP
[6] = average of HCC38, MDA-MB-231, H1975, HMESO1, PANC1, DU145, PC3
[7] = averages of dose-response metrics across the panel
[8] = averages over 11 cell lines, minimal fold differences
[9] = 48-h treatment, amifostine ND = not definable up to 500 µM
[10] = drug alone, 48 h, 4SP65/gefitinib study
[11] = drug alone, 48 h, 4SP65/gefitinib study, ND = not definable, highest concentration in parentheses

4-star-PEG-S-S-WR1065 [4SP65]
Dose reduction value 1LP65 ÷ 4SP65 (Ovary SKOV3 cells; at LC50): 7.5 fold | Dose reduction value 1LP65 ÷ 4SP65 (Ovary SKOV3 cells; at LC99): 9.4 fold | Dose reduction value 1LP65 ÷ 4SP65 (Ovary SKOV3 cells; at TGI): 7.4 fold | Fold increase in efficacy (Ovary SKOV3 cells; at GI50): 1.5** fold | Fold increase in efficacy (Ovary SKOV3 cells; at IC50): 1.8** fold | Fold increase in efficacy (Ovary SKOV3 cells; at LC50, GoE = gain of effect): 1.3** fold | Fold increase in efficacy (Ovary SKOV3 cells; at LC99, GoE = gain of effect): 1.3* fold | Fold increase in efficacy (Ovary SKOV3 cells; at TGI, GoE = gain of effect): 1.5* fold | GI50 (Ovary SKOV3 cells; [1]): 4.3 ± 1 µM | IC50 (Ovary SKOV3 cells; [1]): 5.2 ± 1 µM | LC99 (Ovary SKOV3 cells; [2]): 10.0 ± 0.8 µM | TGI (Ovary SKOV3 cells; [2]): 7.3 ± 0.8 µM | fold more potent than 1LP65, average (human cancer cell lines): 10.4 fold | fold increases in cytostatic and cytolytic activities, range (human cancer cell lines; 4SP65-cisplatin combined, H460 and SKOV3 cells): 1.3- to 36 fold | gains of effect, range (not significant) (human cancer cell lines; 4SP65-cisplatin combined, HMESO1 and PPMMill cells): 1.1- to 1.3 fold | LC99, All cell lines (human cancer cell lines; [3]): 11.2 ± 1.2 µM | TGI, All cell lines (human cancer cell lines; [3]): 6.8 ± 1.1 µM | LC99, range for individual cell lines (human cancer cell lines; [4]): 3.0 to 21.1 µM | TGI, range for individual cell lines (human cancer cell lines; [4]): 2.0 to 16.3 µM | fold more effective as a cytostatic agent than PRIMA-1 or APR-246 (human cancer cell lines; TP53 mutant cells): 2.3- to 30 fold | fold more effective as a cytostatic agent than PRIMA-1 or APR-246 (human cancer cell lines; TP53 wild-type cells): 4.3- to 21 fold | LC99, TP53 Wild-Type (human cancer cell lines; [5]): 14.4 ± 1.6 µM | TGI, TP53 Wild-Type (human cancer cell lines; [5]): 9.5 ± 2.0 µM | LC99, TP53 Mutant (human cancer cell lines; [6]): 9.1 ± 0.9 µM | TGI, TP53 Mutant (human cancer cell lines; [6]): 4.4 ± 0.9 µM | fold more potent than amifostine as a cytostatic agent, average (human cancer cell lines; [7]): 55 fold | fold more potent than amifostine as a cytostatic agent, range (human cancer cell lines; [7]): 45- to 63 fold | Fold difference in drug potency 4SP65 vs 1LP65: GI50 (human cancer cell lines; averages over 11 cell lines): 10.2 | Fold difference in drug potency 4SP65 vs 1LP65: IC50 (human cancer cell lines; averages over 11 cell lines): 9.7 | Fold difference in drug potency 4SP65 vs 1LP65: LC50 (human cancer cell lines; averages over 11 cell lines): 10.4 | Fold difference in drug potency 4SP65 vs 1LP65: LC99 (human cancer cell lines; averages over 11 cell lines): 11.3 | Fold difference in drug potency 4SP65 vs 1LP65: TGI (human cancer cell lines; averages over 11 cell lines): 10.2 | Fold difference in drug potency vs amifostine: GI50 (human cancer cell lines; [8]): > 45 | Fold difference in drug potency vs amifostine: IC50 (human cancer cell lines; [8]): > 57 | Fold difference in drug potency vs amifostine: TGI (human cancer cell lines; [8]): > 63 | fold more potent than 1LP65, range (human cancer cell lines; depending on the dose-response metric): 9.7- to 11.3 fold | fold greater effect than amifostine (human cancer cell lines; four cell lines where amifostine GI50 <100 µM): 38 fold | GI50 (human cancer cell lines; read-out: GI50, All cell lines, 4SP65: average across 15 cell lines, 48 h): 4.1 ± 0.8 µM | GI50 (human cancer cell lines; read-out: GI50, TP53 Mutant, average of HCC38, MDA-MB-231, H1975, HMESO1, PANC1, DU145, PC3): 2.6 ± 0.8 µM | GI50 (human cancer cell lines; read-out: GI50, TP53 Wild-Type, average of A549, H460, PPMMill, LNCaP): 5.8 ± 1.4 µM | GI50 (human cancer cell lines; read-out: GI50, range for individual cell lines, 15 cell lines for 4SP65, 11 for 1LP65): 0.7 to 10.6 µM | GI50 (human cancer cell lines; read-out: GI50 range, seven cell lines compared with NCI data (Table 5)): 0.7 to 9.4 µM | GI50 (human cancer cell lines; read-out: average GI50, four cell lines where amifostine GI50 <100 µM): 1.7 µM | fold potency greater than predicted by four versus one WR1065/molecule (human cancer cell lines; versus 1LP65): ~ 2.5 fold | gains of cytostatic and cytolytic activities, range (A549 NSCLC cells; 4SP65-cisplatin combined): 1.9- to 2.4 fold | GI50 (A549 NSCLC cells; [9]): 5.3 ± 1.1 µM | IC50 (A549 NSCLC cells; [9]): 6.8 ± 1.3 µM | LC99 (A549 NSCLC cells; [9]): 14.9 ± 3.8 µM | TGI (A549 NSCLC cells; [9]): 8.5 ± 1.5 µM and 8.5 µM | LC99, drug in combination (CMB) (A549 NSCLC cells; amount of each drug in combination, ratio 50% 4SP65:50% DDP, 48 h): 8 µM | Dose reduction value 1LP65 ÷ 4SP65 (A549 NSCLC cells; at GI50): 9.9 fold | Dose reduction value AMF ÷ 4SP65 (A549 NSCLC cells; at GI50): 43 fold | Dose reduction value 1LP65 ÷ 4SP65 (A549 NSCLC cells; at IC50): 9.8 fold | Dose reduction value AMF ÷ 4SP65 (A549 NSCLC cells; at IC50): 37 fold | Dose reduction value 1LP65 ÷ 4SP65 (A549 NSCLC cells; at LC50): 13 fold | Dose reduction value 1LP65 ÷ 4SP65 (A549 NSCLC cells; at LC99): 13 fold | Dose reduction value 1LP65 ÷ 4SP65 (A549 NSCLC cells; at TGI): 15 fold | Fold increase in efficacy (A549 NSCLC cells; drug alone ÷ drug in 4SP65-DDP combination, at GI50): 2.4* fold | Fold increase in efficacy (A549 NSCLC cells; drug alone ÷ drug in 4SP65-DDP combination, at IC50): 2.2* fold | Fold increase in efficacy (A549 NSCLC cells; drug alone ÷ drug in 4SP65-DDP combination, at LC50): 1.9* fold | Fold increase in efficacy (A549 NSCLC cells; drug alone ÷ drug in 4SP65-DDP combination, at LC99): 1.9* fold | Fold increase in efficacy (A549 NSCLC cells; drug alone ÷ drug in 4SP65-DDP combination, at TGI): 1.9* fold | Fold increase in efficacy (A549 NSCLC cells; drug alone ÷ drug in 4SP65-GEF combination, at GI50): 1.5** fold | Fold increase in efficacy (A549 NSCLC cells; drug alone ÷ drug in 4SP65-GEF combination, at IC50): 1.4** fold | Fold increase in efficacy (A549 NSCLC cells; drug alone ÷ drug in 4SP65-GEF combination, at LC50, GoE = gain of effect): 1.1 (NS) fold | Fold increase in efficacy (A549 NSCLC cells; drug alone ÷ drug in 4SP65-GEF combination, at LC99, GoE = gain of effect): 1.0 (NS) fold | Fold increase in efficacy (A549 NSCLC cells; drug alone ÷ drug in 4SP65-GEF combination, at TGI, GoE = gain of effect): 1.5** fold | GI50 (A549 NSCLC cells; [1]): 5.4 ± 2.5 µM | IC50 (A549 NSCLC cells; [1]): 6.8 ± 1.3 µM | LC99 (A549 NSCLC cells; [1]): 14.9 ± 3.8 µM | TGI (A549 NSCLC cells; [1]): 8.3 ± 1.5 µM | GI50 (A549 NSCLC cells; [10]): 6 ± 0.6 µM | IC50 (A549 NSCLC cells; [10]): 7.4 ± 0.7 µM | LC99 (A549 NSCLC cells; [11]): 12.3 ± 3.8 µM | TGI (A549 NSCLC cells; [11]): 11.3 ± 1.5 µM | IC50 (Strain-1 NHMECs (M99005); Strain-1 NHMECs): > 150 µM | growth enhancement compared to sham-exposed control cells (Strain-1 NHMECs (M99005); Strain-1 cells, 5 µM): 336% | growth enhancement compared to sham-exposed control cells (Strain-1 NHMECs (M99005); Strain-1 cells, 15 µM): 286% | growth as % of the control cell growth (Strain-1 NHMECs (M99005); Strain-1 cells, 50 µM): 68% | growth pattern (Strain-1 NHMECs (M99005); Strain-1 cells, 150 µM): growth enhancement
